Data reported in the supplement of paper PMC13380429.

Legend:
Settings in all cases: 72 h
Caco-2 [1] = test: cell viability relative to DMSO; higher = less toxic
Calu-3 [2] = test: as above
U2OS [3] = test: as above
HepG2 [4] = test: as above
Vero E6 [5] = test: as above
Caco-2 [6] = test: drug sensitivity score (DSS) for viability; higher = more toxic; extreme values may be limits of the assay
Calu-3 [7] = test: as above
U2OS [8] = test: as above
HepG2 [9] = test: as above
Vero E6 [10] = test: as above
Caco-2 [11] = test: relative viability EC50 (midpoint between 100% and the lowest measured viability); higher = less toxic
Calu-3 [12] = test: as above
U2OS [13] = test: as above
HepG2 [14] = test: as above
Vero E6 [15] = test: as above

Row | Structure (SMILES) | cell viability (Caco-2 [1]; 1 nM) [%] | cell viability (Caco-2 [1]; 10 nM) [%] | cell viability (Caco-2 [1]; 100 nM) [%] | cell viability (Caco-2 [1]; 1000 nM) [%] | cell viability (Caco-2 [1]; 10000 nM) [%] | cell viability (Calu-3 [2]; 1 nM) [%] | cell viability (Calu-3 [2]; 10 nM) [%] | cell viability (Calu-3 [2]; 100 nM) [%] | cell viability (Calu-3 [2]; 1000 nM) [%] | cell viability (Calu-3 [2]; 10000 nM) [%] | cell viability (U2OS [3]; 1 nM) [%] | cell viability (U2OS [3]; 10 nM) [%] | cell viability (U2OS [3]; 100 nM) [%] | cell viability (U2OS [3]; 1000 nM) [%] | cell viability (U2OS [3]; 10000 nM) [%] | cell viability (HepG2 [4]; 1 nM) [%] | cell viability (HepG2 [4]; 10 nM) [%] | cell viability (HepG2 [4]; 100 nM) [%] | cell viability (HepG2 [4]; 1000 nM) [%] | cell viability (HepG2 [4]; 10000 nM) [%] | cell viability (Vero E6 [5]; 1 nM) [%] | cell viability (Vero E6 [5]; 10 nM) [%] | cell viability (Vero E6 [5]; 100 nM) [%] | cell viability (Vero E6 [5]; 1000 nM) [%] | cell viability (Vero E6 [5]; 10000 nM) [%] | drug sensitivity score (Caco-2 [6]) | drug sensitivity score (Calu-3 [7]) | drug sensitivity score (U2OS [8]) | drug sensitivity score (HepG2 [9]) | drug sensitivity score (Vero E6 [10]) | relative viability EC50 (Caco-2 [11]) [µM] | relative viability EC50 (Calu-3 [12]) [µM] | relative viability EC50 (U2OS [13]) [µM] | relative viability EC50 (HepG2 [14]) [µM] | relative viability EC50 (Vero E6 [15]) [µM]
1 | C/C=C/C=C/C(=O)O [sorbic-acid] | 103 | 93.3 | 106 | 99 | 114 | 106 | 99.8 | 84.4 | 91.3 | 110 | 99.5 | 98.4 | 94.2 | 102 | 102 | 87.3 | 97.6 | 90.7 | 107 | 108 | 95.4 | 103 | 96.5 | 94.5 | 102 | 0 | 0 | 0 | 0 | 0 | > 10 | > 10 | > 10 | > 10 | > 10
2 | CC(=O)N1N=C(c2ccc(N)cc2)c2cc3c(cc2C[C@H]1C)OCO3 [talampanel] | 94.7 | 104 | 94.7 | 96.9 | 98.6 | 98 | 99.6 | 98.2 | 95.6 | 97.3 | 99 | 101 | 96.7 | 95.5 | 97.7 | 101 | 93.9 | 100 | 107 | 99.7 | 94 | 95.3 | 95.9 | 95.5 | 97.4 | 0 | 0 | 0 | 0 | 0 | > 10 | > 10 | > 10 | > 10 | > 10
3 | CC(CN(C)C)CN1c2ccccc2CCc2ccccc21 (stereo not given) [trimipramine] | 95.6 | 87.1 | 98 | 102 | 93.7 | 92.3 | 101 | 105 | 105 | 89.4 | 98.7 | 96.4 | 102 | 98.1 | 97.1 | 103 | 104 | 94.3 | 101 | 89.7 | 103 | 101 | 97.6 | 96.8 | 89.8 | 0 | 0 | 0 | 0 | 0 | > 10 | > 10 | > 10 | > 10 | > 10
4 | O=C(O)CCNc1cc(N2CCc3ccccc3CC2)nc(-c2ccccn2)n1 [GSK-J1] | 91.6 | 92.4 | 100 | 99.7 | 104 | 97.5 | 93.3 | 97.9 | 104 | 111 | 90.4 | 100 | 91.9 | 98.6 | 102 | 109 | 89.9 | 113 | 101 | 91.3 | 102 | 94.8 | 96.2 | 95.2 | 102 | 0 | 0 | 0 | 0 | 0 | > 10 | > 10 | > 10 | > 10 | > 10
5 | CC[C@H](NC(=O)c1c(C)c(-c2ccccc2)nc2ccccc12)c1ccccc1 | 106 | 98.4 | 101 | 103 | 91.2 | 95.8 | 95.2 | 100 | 96.7 | 87.7 | 104 | 101 | 101 | 98.7 | 102 | 99 | 108 | 95.4 | 102 | 93.4 | 103 | 109 | 102 | 103 | 96.7 | 0 | 0.2 | 0 | 0 | 0 | > 10 | > 10 | > 10 | > 10 | > 10
6 | COc1ccc([C@]2(C#N)CC[C@@H](C(=O)O)CC2)cc1OC1CCCC1 [cilomilast] | 98.3 | 91.3 | 106 | 106 | 100 | 97.8 | 112 | 102 | 88.9 | 95.9 | 103 | 97.4 | 99.7 | 100 | 100 | 89.4 | 93.6 | 98.3 | 97.2 | 104 | 88.2 | 98.7 | 89.8 | 95.9 | 97.9 | 0 | 0.3 | 0 | 0 | 0 | > 10 | > 10 | > 10 | > 10 | > 10
7 | C[C@@H](c1ccc2nccn2c1)n1nnc2ncc(-c3cnn(C)c3)nc21 [savolitinib] | 103 | 92.9 | 95.4 | 100 | 91.8 | 99.3 | 85.2 | 94.4 | 95.5 | 95.3 | 101 | 103 | 98.9 | 96.9 | 95.8 | 99.5 | 96.2 | 96.8 | 89.4 | 83.4 | 102 | 102 | 96.5 | 98.9 | 97.4 | 0 | 0 | 0 | 0.8 | 0 | > 10 | > 10 | > 10 | > 10 | > 10
8 | O=[N+]([O-])c1nccn1CC(O)CN1CCCCC1 (stereo not given) [pimonidazole] | 94.1 | 86.5 | 100 | 87.4 | 102 | 93.6 | 93.2 | 99.9 | 97 | 107 | 94 | 96.4 | 102 | 95.3 | 106 | 95.8 | 111 | 94.9 | 95.4 | 108 | 99.1 | 98 | 94.7 | 108 | 106 | 0 | 0 | 0 | 0 | 0 | > 10 | > 10 | > 10 | > 10 | > 10
9 | CN(CCOP(=O)(O)O)C(=N)N [creatinol-phosphate] | 102 | 99.5 | 93.6 | 101 | 90.7 | 104 | 94.2 | 105 | 92.8 | 98.5 | 92.5 | 95.6 | 94.7 | 93.3 | 93.4 | 88.7 | 94.6 | 101 | 105 | 92.4 | 103 | 97.8 | 98.4 | 104 | 97.8 | 0 | 0 | 0 | 0 | 0 | > 10 | > 10 | > 10 | > 10 | > 10
10 | Cc1ccc2c(Cl)cc(Cl)c(O)c2n1 [chlorquinaldol] | 107 | 91.3 | 96.7 | 91.4 | 103 | 92.4 | 99.9 | 84.2 | 86.9 | 108 | 96.8 | 102 | 97.8 | 102 | 100 | 89.3 | 95.5 | 99.1 | 84.4 | 108 | 93.3 | 88.9 | 99.2 | 86.6 | 103 | 0 | 0 | 0 | 0 | 0 | > 10 | > 10 | > 10 | > 10 | > 10
11 | CCCC(O)C(CC)CO (stereo not given) [2-ethyl-1,3-hexanediol] | 106 | 88.9 | 101 | 93.9 | 93.3 | 105 | 101 | 102 | 94.6 | 103 | 102 | 99.1 | 95.9 | 97.8 | 102 | 78.7 | 105 | 98.8 | 81.1 | 101 | 95.5 | 102 | 101 | 104 | 75.5 | 0 | 0 | 0 | 0 | 0.7 | > 10 | > 10 | > 10 | > 10 | > 10
12 | CC(C)OC(=O)N1CCC(Oc2ncnc3c2cnn3-c2ccc(S(C)(=O)=O)cc2F)CC1 [APD668] | 106 | 98.4 | 93.6 | 96.1 | 89.1 | 106 | 107 | 102 | 108 | 92.7 | 99.4 | 101 | 97.4 | 106 | 97.5 | 103 | 102 | 96.2 | 98.6 | 77.1 | 90.5 | 95.2 | 100 | 95.7 | 105 | 0 | 0 | 0 | 1 | 0 | > 10 | > 10 | > 10 | > 10 | > 10
13 | C[C@H](Cc1ccc(OCC(=O)O)cc1)NC[C@H](O)c1cccc(Cl)c1 | 98.6 | 89.6 | 105 | 94.8 | 103 | 97.9 | 101 | 103 | 100 | 90.7 | 98 | 93.3 | 96 | 102 | 99.8 | 104 | 111 | 98.4 | 99.8 | 97.7 | 97.6 | 95.9 | 91.7 | 92.3 | 105 | 0 | 0 | 0 | 0 | 0 | > 10 | > 10 | > 10 | > 10 | > 10
14 | CC1(C)O[C@@H]2C[C@H]3[C@@H]4CCC5=CC(=O)CC[C@]5(C)[C@@]4(F)[C@@H](O)C[C@]3(C)[C@]2(C(=O)CCl)O1 [halcinonide] | 106 | 99.4 | 106 | 99 | 104 | 106 | 98.3 | 96.6 | 100 | 102 | 102 | 103 | 96.7 | 89.6 | 97.6 | 104 | 98 | 97.7 | 95.8 | 96 | 101 | 103 | 97.4 | 98.4 | 98.1 | 0 | 0 | 0.1 | 0 | 0 | > 10 | > 10 | > 10 | > 10 | > 10
